Values after ≈ are worked out from the molar mass of the structure shown. Values joined by “and” are separate entries in the source; they are usually repeats but may differ in a detail not shown here. Equal entries are not always repeated. Where two headings read alike, the source gives them in different places. Marks after values point to notes of the source that are not given here.
Tests used:
[1] = tested on: Influenza A (H1N1; New Caledonia/20/99); test: microbe, parasite or virus in culture; type: cell-based, influenza type A virus; conditions: for EC50: Influenza A virus, H1N1, MDCK, MDCK cells, H1N1 New Caledonia/20/99; for antiviral activity rating in words: influenza virus A (H1N1)
[2] = tested on: Madin-Darby canine kidney cells (MDCK); conditions: at concentrations of 1-100 μg/ml
[3] = tested on: Influenza A (H3N2; Panama/2007/99); test: microbe, parasite or virus in culture; type: cell-based, influenza type A virus; conditions: for EC50: MDCK cells, H3N2 Panama/2007/99; for SI (Safety Index = IC50/EC50): H3N2; for antiviral activity rating in words: influenza virus A (H3N2)
[4] = tested on: Influenza B (Hong Kong/330/02); test: Antiviral assay in MDCK cells (CPE inhibition visual / Neutral Red), influenza B, initial and confirmatory test; type: cell-based, influenza type B virus; conditions: for antiviral activity rating in words: influenza virus B
Experimental: An antiviral test assay for the determination of the efficacy of DON was carried out according to the methods described in Furata et al., Antimicrobial Agents and Chemotherapy, 46(4):977-981 (2002). The vehicle used was Eagle's modification of minimum essential medium (EMEM). Two tests were carried out with different strains of influenza type A viruses and one test, followed by a confirmatory test, was carried out with an influenza type B virus strain. The cell type in all tests was Madin-Darby canine kidney cells (MDCK), and in all tests drug units and control units are expressed as micrograms/milliliter (μg/ml). […] The Safety Index (SI) of the drug could then be calculated according to the formula: SI═IC50/EC50. […] The Safety Index (SI) of the drug could then be calculated according to the formula: SI═IC50/ EC50, or SI═IC50/ EC90. All drug tests were carried out with stationary cells.

[5] = tested on: Madin-Darby canine kidney cells (MDCK); test: cells; conditions: Canis lupus familiaris
[6] = based on EC50 by CPE inhibition (visual), H1N1
[7] = based on EC50 by Neutral Red, H1N1
[8] = Influenza A virus, H3N2, MDCK, CPE inhibition (visual), read-out: EC50
[9] = Influenza A virus, H3N2, MDCK, Neutral Red assay, read-out: EC50
[10] = based on EC50 by CPE inhibition (visual)
[11] = Influenza B virus, MDCK, CPE inhibition (visual), MDCK cells, influenza B Hong Kong/330/02, initial test, read-out: EC50
[12] = Influenza B virus, MDCK, Neutral Red assay, MDCK cells, influenza B Hong Kong/330/02, initial test, read-out: EC50
[13] = Influenza B virus, MDCK, confirmatory test, visual method, MDCK cells, influenza B Hong Kong/330/02, read-out: EC50
[14] = based on EC50 by CPE inhibition (visual), influenza B initial test
[15] = based on EC50 by Neutral Red, influenza B initial test
[16] = read-out: IC50 (concentration toxic for 50% of MDCK host cells), in the influenza A H1N1 test, stationary cells
[17] = read-out: IC50 (concentration toxic for 50% of MDCK host cells), in the influenza A H3N2 test, stationary cells
[18] = read-out: IC50 (concentration toxic for 50% of MDCK host cells), in the influenza B confirmatory test, stationary cells
[19] = read-out: IC50 (concentration toxic for 50% of MDCK host cells), in the influenza B initial test, stationary cells

Row | SMILES | EC50 ([1]; CPE inhibition (visual)) [µg/mL] | EC50 ([1]; Neutral Red assay) [µg/mL] | SI (Safety Index = IC50/EC50) [1, 6] | SI (Safety Index = IC50/EC50) [1, 7] | antiviral activity rating in words [1] | EC50 [3, 8] [µg/mL] | EC50 [3, 9] [µg/mL] | SI (Safety Index = IC50/EC50) [3, 10] | SI (Safety Index = IC50/EC50) ([3]; based on EC50 by Neutral Red) | antiviral activity rating in words [3] | EC50 [4, 11] [µg/mL] | EC50 [4, 12] [µg/mL] | EC50 [4, 13] [µg/mL] | SI (Safety Index = IC50/EC50) [4, 14] | SI (Safety Index = IC50/EC50) [4, 15] | SI (Safety Index = IC50/EC50) ([4]; influenza B confirmatory test) | SI = IC50/EC90 ([4]; influenza B confirmatory test) | IC50 [5, 16] [µg/mL] | IC50 [5, 17] [µg/mL] | IC50 [5, 19] [µg/mL] | further results
1 | [N-]=[N+]=CC(=O)CC[C@H](N)C(=O)O [DON, 6-diazo-5-oxo-L-norleucine] | 0.32 (≈ 1.87 µM) | 0.21 (≈ 1.23 µM) | 312 | 476 | active to highly active | 2.3 (≈ 13.4 µM) | 1.8 (≈ 10.5 µM) | 43 | 56 | active to highly active | 0.032 (≈ 0.187 µM) | 0.14 (≈ 0.818 µM) | 0.18 (≈ 1.05 µM) | 3,125 | 714 | >555 | 40^b | > 100 | ≥ 100 | ≥ 100 | toxicity in the neutral red assay [2]: 25-50%; toxicity by neutral red assay in Vero cells compared with MDCK cells (Vero cells): much greater than in MDCK cells; EC90 ([4]; Influenza B virus, MDCK): 2.5 µg/mL (≈ 14.6 µM); antiviral activity rating in words [4]: active to highly active; IC50 [5, 18]: > 100 µg/mL
2 | NC(=O)c1ncn([C@@H]2O[C@H](CO)[C@@H](O)[C@H]2O)n1 [Positive control drug, ribavarin] | 5.5 (≈ 22.5 µM) | 5.5 (≈ 22.5 µM) | – | – | – | – | 4.3 (≈ 17.6 µM) | – | – | – | – | 2 (≈ 8.19 µM) | 1.8 (≈ 7.37 µM) | – | >50 and >83 | >56 | >29^b | > 100 | > 100 | > 100 | SI (Safety Index = IC50/EC50) [1]: >18; EC50 ([3]; Neutral Red assay): 5.5 µg/mL (≈ 22.5 µM); EC90 ([4]; Influenza B virus, confirmatory test, visual method, MDCK cells, influenza B Hong Kong/330/02, read-out: EC90): 3.5 µg/mL (≈ 14.3 µM); EC50 ([4]; Neutral Red assay, MDCK cells, influenza B Hong Kong/330/02, initial test): 1.2 µg/mL (≈ 4.91 µM); IC50 [5, 18]: > 100 µg/mL
3 | N[C@H](C(=O)O)[C@@H]1CC(Cl)=NO1 [acivicin, (alpha-S,5S)-alpha-amino-3-chloro-2-isoxazoline-5-acetic acid] | 2.5 (≈ 14 µM) | 1.3 (≈ 7.28 µM) | >4 | >7.7 | weakly active to active | 50 (≈ 280 µM) | 55 (≈ 308 µM) | >2 | 1.8 | not active | 0.32 (≈ 1.79 µM) | 0.32 (≈ 1.79 µM) | – | >312 | >312 | – | – | > 100 | ≥ 100 | ≥ 100 | antiviral activity rating in words [4]: markedly active

— patent publication US20060276438A1 (priority 2004, published 2006)
